Values joined by “and” are separate entries in the source; they are usually repeats but may differ in a detail not shown here. Equal values may be shown once. Toxic doses and inconclusive results are not listed.
Tested on: P388 leukemia ip, CD2F1 mice, survival T/C
Experiment: NCI In Vivo Anticancer Drug Screen. Data for tumor model P388 Leukemia (intraperitoneal) in CD2F1 (CDF1) mice
Details: endpoint: median survival time, higher = longer survival
Outline: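 Mice carrying the transplanted tumor received test compound or vehicle. Survival was recorded in each group, and the value is the treated-group measurement divided by that of the vehicle-treated control group.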

## N[C@H](C(=O)O)[C@@H]1CC(Cl)=NO1
dose: 0.03 mg/kg/injection, schedule: Q01DX009 (ip), vehicle: saline
  T/C: 105 % of control and 108 % of control
dose: 0.06 mg/kg/injection, schedule: Q01DX009 (ip), vehicle: saline
  T/C: 113 % of control
dose: 0.13 mg/kg/injection, schedule: Q01DX009 (ip), vehicle: saline
  T/C: 120 % of control
dose: 0.25 mg/kg/injection, schedule: Q01DX009 (ip), vehicle: saline
  T/C: 150 % of control
dose: 0.5 mg/kg/injection, schedule: Q01DX009 (ip), vehicle: saline
  T/C: 155 % of control
dose: 0.63 mg/kg/injection, schedule: Q01DX009 (ip), vehicle: saline
  T/C: 174 % of control
dose: 0.75 mg/kg/injection, schedule: Q01DX009 (ip), vehicle: saline
  T/C: 155 % of control
dose: 1.0 mg/kg/injection, schedule: Q01DX009 (ip), vehicle: saline
  T/C: 150 % of control and 171 % of control
dose: 1.0 mg/kg/injection, schedule: Q01DX009 (ip), vehicle: water
  T/C: 121 % of control
dose: 1.25 mg/kg/injection, schedule: Q01DX009 (ip), vehicle: saline
  T/C: 213 % of control
dose: 1.94 mg/kg/injection, schedule: Q01DX009 (ip), vehicle: saline
  T/C: 165 % of control and 179 % of control and 192 % of control
dose: 2.0 mg/kg/injection, schedule: Q01DX005 (ip), vehicle: saline
  T/C: 119 % of control
dose: 2.0 mg/kg/injection, schedule: Q01DX005 (ip), vehicle: water
  T/C: 111 % of control
dose: 2.0 mg/kg/injection, schedule: Q01DX005 (iv), vehicle: saline
  T/C: 119 % of control
dose: 2.0 mg/kg/injection, schedule: Q01DX009 (ip), vehicle: saline
  T/C: 152 % of control and 164 % of control and 198 % of control
dose: 2.0 mg/kg/injection, schedule: Q01DX009 (ip), vehicle: water
  T/C: 153 % of control
dose: 2.3 mg/kg/injection, schedule: Q01DX009 (ip), vehicle: saline
  T/C: 190 % of control
dose: 2.5 mg/kg/injection, schedule: Q01DX009 (ip), vehicle: saline
  T/C: 235 % of control
dose: 3.0 mg/kg/injection, schedule: Q01DX005 (iv), vehicle: saline
  T/C: 119 % of control
dose: 3.0 mg/kg/injection, schedule: Q01DX009 (ip), vehicle: saline
  T/C: 175 % of control and 180 % of control and 238 % of control
dose: 3.12 mg/kg/injection, schedule: Q01DX005 (ip), vehicle: water
  T/C: 155 % of control
dose: 3.24 mg/kg/injection, schedule: Q01DX009 (ip), vehicle: saline
  T/C: 177 % of control and 189 % of control and 203 % of control
dose: 3.5 mg/kg/injection, schedule: Q01DX009 (ip), vehicle: saline
  T/C: 194 % of control
dose: 4.0 mg/kg/injection, schedule: Q01DX005 (ip), vehicle: saline
  T/C: 161 % of control
dose: 4.0 mg/kg/injection, schedule: Q01DX005 (iv), vehicle: saline
  T/C: 119 % of control
dose: 4.0 mg/kg/injection, schedule: Q01DX009 (ip), vehicle: saline
  T/C: 161 % of control and 190 % of control
dose: 4.0 mg/kg/injection, schedule: Q01DX009 (ip), vehicle: water
  T/C: 112 % of control
dose: 4.32 mg/kg/injection, schedule: Q01DX005 (ip), vehicle: saline
  T/C: 154 % of control
dose: 5.0 mg/kg/injection, schedule: Q01DX005 (ip), vehicle: saline
  T/C: 158 % of control
dose: 5.0 mg/kg/injection, schedule: Q01DX009 (ip), vehicle: saline
  T/C: 235 % of control
dose: 5.3 mg/kg/injection, schedule: Q01DX009 (ip), vehicle: saline
  T/C: 203 % of control
dose: 5.4 mg/kg/injection, schedule: Q01DX009 (ip), vehicle: saline
  T/C: 163 % of control and 188 % of control and 204 % of control
dose: 6.0 mg/kg/injection, schedule: Q01DX009 (ip), vehicle: saline
  T/C: 173 % of control and 186 % of control and 319 % of control
dose: 6.25 mg/kg/injection, schedule: Q01DX005 (ip), vehicle: water
  T/C: 150 % of control and 168 % of control
dose: 7.2 mg/kg/injection, schedule: Q01DX005 (ip), vehicle: saline
  T/C: 156 % of control
dose: 8.0 mg/kg/injection, schedule: Q01DX005 (ip), vehicle: saline
  T/C: 171 % of control and 182 % of control
dose: 8.0 mg/kg/injection, schedule: Q01DX005 (iv), vehicle: saline
  T/C: 119 % of control
dose: 8.0 mg/kg/injection, schedule: Q01DX009 (ip), vehicle: saline
  T/C: 186 % of control and 210 % of control
dose: 8.0 mg/kg/injection, schedule: Q01DX009 (ip), vehicle: water
  T/C: 184 % of control
dose: 9.0 mg/kg/injection, schedule: Q01DX009 (ip), vehicle: saline
  T/C: 99 % of control
dose: 10.0 mg/kg/injection, schedule: Q01DX005 (ip), vehicle: saline
  T/C: 164 % of control
dose: 12.0 mg/kg/injection, schedule: Q01DX005 (ip), vehicle: saline
  T/C: 220 % of control
dose: 12.0 mg/kg/injection, schedule: Q01DX005 (iv), vehicle: saline
  T/C: 171 % of control
dose: 12.5 mg/kg/injection, schedule: Q01DX005 (ip), vehicle: water
  T/C: 155 % of control and 182 % of control
dose: 15.0 mg/kg/injection, schedule: Q01DX009 (ip), vehicle: saline
  T/C: 98 % of control and 100 % of control
dose: 16.0 mg/kg/injection, schedule: Q01DX005 (ip), vehicle: saline
  T/C: 164 % of control and 181 % of control
dose: 16.0 mg/kg/injection, schedule: Q01DX005 (ip), vehicle: water
  T/C: 152 % of control and 163 % of control
dose: 16.0 mg/kg/injection, schedule: Q01DX009 (ip), vehicle: saline
  T/C: 102 % of control and 218 % of control
dose: 16.0 mg/kg/injection, schedule: Q01DX009 (ip), vehicle: water
  T/C: 198 % of control
dose: 20.0 mg/kg/injection, schedule: Q01DX005 (ip), vehicle: saline
  T/C: 169 % of control and 176 % of control
dose: 20.0 mg/kg/injection, schedule: Q04DX003 (ip), vehicle: saline
  T/C: 158 % of control
dose: 24.0 mg/kg/injection, schedule: Q01DX005 (ip), vehicle: saline
  T/C: 222 % of control
dose: 24.0 mg/kg/injection, schedule: Q01DX005 (iv), vehicle: saline
  T/C: 108 % of control
dose: 25.0 mg/kg/injection, schedule: Q01DX005 (ip), vehicle: water
  T/C: 155 % of control and 187 % of control
dose: 32.0 mg/kg/injection, schedule: Q01DX005 (ip), vehicle: saline
  T/C: 225 % of control
dose: 32.0 mg/kg/injection, schedule: Q01DX005 (ip), vehicle: water
  T/C: 170 % of control
dose: 40.0 mg/kg/injection, schedule: Q04DX003 (ip), vehicle: saline
  T/C: 180 % of control and 196 % of control
dose: 50.0 mg/kg/injection, schedule: Q04DX003 (ip), vehicle: other
  T/C: 163 % of control
dose: 80.0 mg/kg/injection, schedule: Q04DX003 (ip), vehicle: saline
  T/C: 150 % of control and 190 % of control and 297 % of control
dose: 100.0 mg/kg/injection, schedule: Q04DX003 (ip), vehicle: other
  T/C: 161 % of control
dose: 160.0 mg/kg/injection, schedule: Q04DX003 (ip), vehicle: saline
  T/C: 118 % of control and 164 % of control and 250 % of control
